In patent US9249076B2, “Recyclable extractant compositions” (BUTAMAX ADVANCED BIOFUELS LLC, priority 2012, dated 2016):
Several values for one entry are separate records, joined by “and”; a condition that tells them apart may be missing. Equal entries are not always repeated. Each block holds one compound with its values, some of them ahead of it.

Key:
[1] = system: yeast (e.g., Saccharomyces); settings: cited from earlier work
[2] = Oil Stability Index (OSI), antioxidant activity in COFA, AOCS Cd 12b-92; settings: 110° C.
Method: Antioxidants were added on a weight percent basis to quantities of Corn Oil Fatty Acids (CAS No. 8001-30-7) and allowed to dissolve. […] COFA samples containing undissolved antioxidants were thoroughly mixed before withdrawing samples for analysis, to ensure the samples contained the specified weight percent of antioxidant.
Samples were run and the induction periods were determined according to AOCS method Cd 12b-92. All samples were tested at 110° C.

[3] = system: gram-negative and gram-positive bacteria (e.g., Lactobacillus); settings: cited from earlier work

SMILES: CCCCCCCCCCCCCCCC(=O)OC[C@H](O)[C@H]1OC(=O)C(O)=C1O [L-ascorbic acid 6-palmitate]
- OSI ([2]; Crude COFA, dose 0.0100 Wt %): 10.05 h
- OSI ([2]; Crude COFA, dose 0.0200 Wt %): 4.1 h
- OSI ([2]; Crude COFA, dose 0.2000 Wt %): 25.4 h and 29.8 h
- OSI ([2]; Crude COFA, dose 0.2045 Wt %): 26.4 h

SMILES: c1ccc2c(c1)Nc1ccccc1S2 [Phenothiazine]
- Activity Index ([2]; Crude COFA, dose 0.2034 Wt %): 1.61
- OSI ([2]; Crude COFA, dose 0.2034 Wt %): 2.3 h

SMILES: Cc1c(C)c2c(c(C)c1O)CC[C@@](C)(CCC[C@H](C)CCC[C@H](C)CCCC(C)C)O2 [a-Tocopherol]
- Activity Index ([2]; Distilled COFA, dose 0.2 Wt %): 2.63
- OSI ([2]; Distilled COFA, dose 0.2 Wt %): 0.35 h
- Activity Index ([2]; Distilled COFA, dose 1.1 Wt %): 1.13
- OSI ([2]; Distilled COFA, dose 1.1 Wt %): 0.15 h
- Activity Index ([2]; Distilled COFA, dose 2 Wt %): 1.13
- OSI ([2]; Distilled COFA, dose 2 Wt %): 0.15 h

Second part, led by results:

- OSI ([2]; Crude COFA, dose 0.0200 Wt %): 1.85 h
- OSI ([2]; Crude COFA, dose 0.1998 Wt %): 2.85 h
- OSI ([2]; Crude COFA, dose 0.2020 Wt %): 3 h
- OSI ([2]; Crude COFA, dose 0.205 Wt %): 11.3 h and 12.65 h
- OSI ([2]; Crude COFA, dose 0.2097 Wt %): 2.95 h
- OSI ([2]; Distilled COFA, dose 0.2 Wt %): 2.35 h
- OSI ([2]; Distilled COFA, dose 1.1 Wt %): 7 h
- OSI ([2]; Distilled COFA, dose 2 Wt %): 8.8 h
SMILES: Cc1cc(C(C)(C)C)c(O)c(C(C)(C)C)c1 [BHT, butylated hydroxytoluene]
- Effect on yeast [1]: does not affect yeast
- Activity Index ([2]; Crude COFA, dose 0.0200 Wt %): 1.42
- Activity Index ([2]; Crude COFA, dose 0.1998 Wt %): 2.19
- Activity Index ([2]; Crude COFA, dose 0.2020 Wt %): 2.11
- Activity Index ([2]; Crude COFA, dose 0.205 Wt %): 2.43 and 2.72
- Activity Index ([2]; Crude COFA, dose 0.2097 Wt %): 2.07
- Activity Index ([2]; Distilled COFA, dose 0.2 Wt %): 17.63
- Activity Index ([2]; Distilled COFA, dose 1.1 Wt %): 52.50
- Activity Index ([2]; Distilled COFA, dose 2 Wt %): 66.00
- Antimicrobial activity [3]: have antimicrobial activity

- OSI ([2]; Crude COFA, dose 0.2074 Wt %): 0.95 h
SMILES: CCOc1ccc2c(c1)C(C)=CC(C)(C)N2 [Ethoxyquin]
- Activity Index ([2]; Crude COFA, dose 0.2074 Wt %): 0.67

- OSI ([2]; Crude COFA, dose 0.193 Wt %): 7.9 h and 5.8 h
SMILES: O=C(O)c1cc(O)c(O)c(O)c1 [Gallic acid]
- Activity Index ([2]; Crude COFA, dose 0.193 Wt %): 1.70 and 1.25

- OSI ([2]; Crude COFA, dose 0.2046 Wt %): 2.35 h
SMILES: Cc1c(Cc2cc(C(C)(C)C)c(O)c(C(C)(C)C)c2)c(C)c(Cc2cc(C(C)(C)C)c(O)c(C(C)(C)C)c2)c(C)c1Cc1cc(C(C)(C)C)c(O)c(C(C)(C)C)c1 [Irganox 1330]
- Activity Index ([2]; Crude COFA, dose 0.2046 Wt %): 1.65

- OSI ([2]; Crude COFA, dose 0.0200 Wt %): 1.75 h
- OSI ([2]; Crude COFA, dose 0.2000 Wt %): 3.65 h
- OSI ([2]; Crude COFA, dose 0.2082 Wt %): 3.7 h
SMILES: CC(C)(C)c1cc(O)ccc1O [TBHQ, tertiary-butylhydroquinone]
- Activity Index ([2]; Crude COFA, dose 0.0200 Wt %): 1.35
- Activity Index ([2]; Crude COFA, dose 0.2000 Wt %): 2.81
- Activity Index ([2]; Crude COFA, dose 0.2082 Wt %): 2.60
